# From publication PMC4501179, “Tuning properties and dynamic range of type 1 vomeronasal receptors” (Frontiers in Neuroscience, 2015)
# Biological target: T1, V1rj3 (Mus musculus, UniProt Q2TBB9)
# T1 sequence (Q2TBB9 1-308): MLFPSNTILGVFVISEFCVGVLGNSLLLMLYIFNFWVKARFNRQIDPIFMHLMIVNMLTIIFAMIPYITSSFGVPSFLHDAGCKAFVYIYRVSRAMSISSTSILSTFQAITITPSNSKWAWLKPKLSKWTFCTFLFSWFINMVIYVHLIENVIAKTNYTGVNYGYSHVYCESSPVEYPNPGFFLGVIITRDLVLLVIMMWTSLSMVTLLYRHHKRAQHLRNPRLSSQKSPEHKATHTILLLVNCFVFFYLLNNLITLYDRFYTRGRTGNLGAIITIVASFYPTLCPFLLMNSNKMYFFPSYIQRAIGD
# Assay: GCaMP2 calcium imaging of VNO slices from transgenic mice ectopically expressing V1rj3
row,SMILES,GCaMP2 calcium imaging of VNO slices from transgenic mice ectopically expressing
1,"C[C@]12CC[C@@H]3c4ccc(OS(=O)(=O)O)cc4CC[C@H]3[C@@H]1CC[C@@H]2O [E1100, 17β-estradiol 3-sulfate]",10^−5 M
2,"C[C@]12CC[C@H]3[C@@H](CC=C4C[C@@H](OS(=O)(=O)O)CC[C@@]43C)[C@@H]1CC[C@@H]2OS(=O)(=O)O [A7864, 5-androsten-3β, 17β-diol-disulfate]",10^−5 M
3,"C[C@]12CC[C@@H]3c4ccc(OS(=O)(=O)O)cc4CC[C@H]3[C@@H]1CC[C@@H]2OS(=O)(=O)O [E1050, 1, 3, 5(10)-estratrien-3, 17β-diol disulfate]",10^−10 M
4,"C[C@]12CC[C@@H]3c4ccc(O)cc4CC[C@H]3[C@@H]1CC[C@@H]2OS(=O)(=O)O [E1103, 1,3, 5(10)-estratrien-3, 17β-diol 17-sulfate]",10^−10 M
